Source: paper PMC8911699, “Biological and Cheminformatics Studies of Newly Designed Triazole Based Derivatives as Potent Inhibitors against Mushroom Tyrosinase” (Molecules, 2022)
pKi: −log10 of the molar value. Entries after “also recorded” stand apart in the source; their conditions may differ.

Tests used:
[1] = biological target: T1, mushroom tyrosinase (Agaricus bisporus, UniProt C7FF04); test: Mushroom tyrosinase inhibition assay (dopachrome technique, L-DOPA substrate); format: biochemical
Procedure: The inhibition of mushroom tyrosinase was determined by an alteration of the dopachrome technique using L-DOPA as a substrate. The mushroom tyrosinase (EC-232-653-4) was purchased from Sigma Korea. […] After the incubation time, the absorbance was measured at 475 nm using a microplate reader (SpectraMax ABS, Molecular Devices, California, CA, USA) and the inhibition percentage was calculated in relation to the control. […] Each concentration was scrutinized in three independent experiments. IC50 values were calculated by non-linear regression using GraphPad Prism 5.0. The % inhibition of tyrosinase was calculated as follows:Inhibition (%) = [(B−S)/B] ×100 where the B and S are the absorbances of the blank control and normal samples, respectively.
Target sequence in this assay (C7FF04 2-392): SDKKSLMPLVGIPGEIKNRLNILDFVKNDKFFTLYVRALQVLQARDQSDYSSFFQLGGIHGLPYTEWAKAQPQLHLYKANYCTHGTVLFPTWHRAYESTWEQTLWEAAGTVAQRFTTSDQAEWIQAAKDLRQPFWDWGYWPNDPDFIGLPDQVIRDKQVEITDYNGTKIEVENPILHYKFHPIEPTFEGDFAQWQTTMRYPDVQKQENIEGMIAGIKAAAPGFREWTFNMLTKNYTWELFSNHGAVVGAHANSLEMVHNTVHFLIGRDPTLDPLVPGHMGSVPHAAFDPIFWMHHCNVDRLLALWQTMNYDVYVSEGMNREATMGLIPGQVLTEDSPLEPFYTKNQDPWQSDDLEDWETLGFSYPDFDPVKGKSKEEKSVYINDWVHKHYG

[2] = biological target: T1, mushroom tyrosinase; test: Inhibition kinetics (Lineweaver-Burk and secondary plots); format: biochemical; design: purchased Sigma Korea EC-232-653-4
Procedure: To understand the inhibitory mechanism of synthetic compounds on tyrosinase, an inhibition kinetic study was performed. […] The kinetic results of the enzyme expressed by the Lineweaver–Burk plot of 1/V versus 1/[S] for different inhibitor concentrations provided a series of straight lines. […] Additionally, the Km value increased with increasing the concentration of the inhibitor. […] The inhibition constant Ki was computed from Figure 4.
A series of experiments were performed to regulate the inhibition kinetics of 9h by following the already reported methods. The inhibitor concentrations for 9h were 0.00, 0.049, 0.098, and 0.196 µM. Substrate (L-DOPA) concentrations were between 0.0625 to 2 mM in all kinetic studies. Pre-incubation and measurement time were the same as discussed in the mushroom tyrosinase inhibition assay protocol. Maximal initial velocity was obtained from the initial linear portion of absorbance up to five minutes after the addition of enzyme at the 30 s interval. The inhibition type of the enzyme was assayed by Lineweaver–Burk plots of the inverse of velocities (1/V) versus the inverse of substrate concentration 1/[S] mM^−1.
Target sequence in this assay (C7FF04 1-392 limits assumed): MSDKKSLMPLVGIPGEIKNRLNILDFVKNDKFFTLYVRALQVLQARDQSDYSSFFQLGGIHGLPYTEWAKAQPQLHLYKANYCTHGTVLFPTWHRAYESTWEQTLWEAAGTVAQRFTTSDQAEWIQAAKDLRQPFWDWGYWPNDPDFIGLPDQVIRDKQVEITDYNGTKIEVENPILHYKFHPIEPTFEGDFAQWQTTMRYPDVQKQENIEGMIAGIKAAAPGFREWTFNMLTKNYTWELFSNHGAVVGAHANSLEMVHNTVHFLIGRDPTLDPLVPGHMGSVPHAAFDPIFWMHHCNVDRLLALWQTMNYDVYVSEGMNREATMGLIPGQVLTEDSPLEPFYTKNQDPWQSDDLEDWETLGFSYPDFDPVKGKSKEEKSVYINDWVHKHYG

Row | SMILES | response against mushroom tyrosinase inhibition (in words) [1] | melting point [°C] | inhibition type ([2]; Lineweaver-Burk plot, Vmax same, Km increased) | pKi ([2]; from plot of slope versus inhibitor concentration, L-DOPA 0.0625-2 mM, read-out: inhibition constant Ki)
1 | O=C(CSc1nnc(-c2ccc(F)cc2)n1-c1ccc(F)cc1)Nc1ccc(F)cc1 [9b, 2-(4,5-Bis(4-fluorophenyl)-4H-1,2,4-triazol-3-ylthio)-N-(4-fluorophenyl) Acetamide] | did not show any response; also recorded: ineffective counter response | 195.3 | – | –
2 | O=C(CSc1nnc(-c2ccc(F)cc2)n1-c1ccc(F)cc1)Nc1ccc(Br)cc1 [9c, 2-(4,5-Bis(4-fluorophenyl)-4H-1,2,4-triazol-3-ylthio)-N-(4-bromophenyl) Acetamide] | did not show any response; also recorded: ineffective counter response | 219.3 | – | –
3 | O=C(CSc1nnc(-c2ccccc2)n1-c1ccc(F)cc1)Nc1ccccc1 [9d, 2-(4-(4-Fluorophenyl)-5-phenyl-4H-1,2,4-triazol-3-ylthio)-N-phenylacetamide] | – | 206 | – | –
4 | O=C(CSc1nnc(-c2ccccc2)n1-c1ccc(F)cc1)Nc1ccc(F)cc1 [9e, N-(4-fluorophenyl)-2-(4-(4-fluorophenyl)-5-phenyl-4H-1,2,4-triazol-3-ylthio) Acetamide] | – | 220.1 | – | –
5 | O=C(CSc1nnc(-c2ccccc2F)n1-c1ccc(F)cc1)Nc1ccc(F)cc1 [9h, N-(4-fluorophenyl)-2-(5-(2-fluorophenyl)-4-(4-fluorophenyl)-4H-1,2,4-triazol-3-ylthio) Acetamide] | – | – | competitively inhibits | 7.74
6 | O=C(CSc1nnc(-c2ccccc2F)n1-c1ccc(F)cc1)Nc1ccc(Br)cc1 [9i, N-(4-bromophenyl)-2-(5-(2-fluorophenyl)-4-(4-fluorophenyl)-4H-1,2,4-triazol-3-ylthio) Acetamide] | did not show any response | 248.9 | – | –
